Consider three compounds from patent publication USRE38576E1, “Stabilized aspirin compositions and method of preparation for oral and topical use” (priority 2000, dated 2004).

The conditions of series [1]: dimethyl isosorbate as solvent; cited from earlier work.
Series [2] is described as follows: pH of KSA / KASA formulas. Type of series: physicochemical. The procedure: In 50 ml water, 37 gms KOH are mixed with 76 gms SA. […] Administration is by gradual ingestion by sipping. A much higher dose of 2 gm KSA can be administered as needed using two 1 gm doses separated by an interval of time so that the doses overlap closely.
An example of a topical KSA is as follows: Using the supersaturated KSA formula of Example 1, a topical formula was prepared as follows: 225 ml Aloe Vera Gel was mixed with 2½ ml liquid castile soap (Dr. Bronner's was used), and 2½ ml vegetable glycerin. Dry ingredients of 900 mg citric acid, 600 mg guar gum and 14 gm dehydrated KSA are separately mixed.

Setting [3] is: 1 gm dehydrated product mixed with 225 ml water.

Turning to `CC(=O)Oc1ccccc1C(=O)O` [ASA, acetylsalicylic acid], in series [1], the “concentration of ASA achieved in solution” value is 280 mg of ASA/ml.
In series [2] (setting [3]), `CC(=O)Oc1ccccc1C(=O)[O-].[K+]` [KASA, potassium acetylsalicyclic acid] had a pH of 8.42.
For `O=C(O)c1ccccc1O.[K]` [KSA, potassium salicylic acid], the pH in series [2] (setting [3]) was 8.90; in series [2] (concentrated solution as prepared, before dehydration) it was 12.0-13.0.
